Measured values published in BindingDB's records for doi:10.1021/acs.jmedchem.8b00250 (University of Liege, 2018).

Molecular target: Glutamate receptor 2 (Homo sapiens, UniProt P42262)
Assay: Positive allosteric modulation of GluA2Q flop isoform (unknown origin) expressed in HEK293 cells assessed as increase in L-glutamate induced calcium flux after 1 hr by fluo-4AM dye-based fluorescence assay

Sequence of Glutamate receptor 2 (P42262 whole entry, canonical isoform): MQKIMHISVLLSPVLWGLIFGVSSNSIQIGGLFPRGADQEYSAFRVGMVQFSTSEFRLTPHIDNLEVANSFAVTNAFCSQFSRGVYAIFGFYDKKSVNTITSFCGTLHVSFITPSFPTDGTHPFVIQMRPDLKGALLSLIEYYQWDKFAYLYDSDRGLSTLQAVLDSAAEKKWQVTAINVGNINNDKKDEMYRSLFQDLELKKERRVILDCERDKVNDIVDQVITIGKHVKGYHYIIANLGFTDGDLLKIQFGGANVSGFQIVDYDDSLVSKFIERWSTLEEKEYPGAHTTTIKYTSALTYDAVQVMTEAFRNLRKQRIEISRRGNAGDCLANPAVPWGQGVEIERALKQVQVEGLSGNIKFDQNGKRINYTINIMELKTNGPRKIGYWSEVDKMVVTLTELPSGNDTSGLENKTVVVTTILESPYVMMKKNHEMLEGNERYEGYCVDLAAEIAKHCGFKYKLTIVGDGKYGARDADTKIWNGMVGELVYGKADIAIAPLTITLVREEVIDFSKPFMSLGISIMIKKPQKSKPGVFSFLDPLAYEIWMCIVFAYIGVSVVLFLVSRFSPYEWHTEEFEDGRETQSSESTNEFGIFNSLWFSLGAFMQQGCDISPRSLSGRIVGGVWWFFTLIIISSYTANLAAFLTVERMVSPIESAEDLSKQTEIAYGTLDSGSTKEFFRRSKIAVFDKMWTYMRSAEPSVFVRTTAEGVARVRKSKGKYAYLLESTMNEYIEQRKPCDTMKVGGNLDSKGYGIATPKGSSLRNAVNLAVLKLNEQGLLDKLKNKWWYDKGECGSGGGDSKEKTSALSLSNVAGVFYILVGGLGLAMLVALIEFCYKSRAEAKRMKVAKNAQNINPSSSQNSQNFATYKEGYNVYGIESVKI

EC50: 1.3 nM
SMILES: O=S1(=O)NCN(C2CC2)c2cc(CCc3ccc4c(c3)N(C3CC3)CNS4(=O)=O)ccc21
